Columns and labels:
Format in all cases: cell-based
S. aureus = assay: Microbicidal activity, peptides incubated with S. aureus for 2 h in BP; settings: 2 h incubation in BP; two fold dilution steps starting at 100 μg/ml
Description: (§1) The peptides were incubated with E. coli, S. aureus or C. albicans for 2 h in BP. The peptides were diluted in two fold steps starting at 100 μg/ml or 200 μg/ml (C. albicans).

[1] = system: E. coli, S. aureus or C. albicans; assay: Microbicidal activity, overall comparison with native hLF-derived peptide; settings: versus HLBD1
Description: as §1

C. albicans = assay: Microbicidal activity, peptides incubated with C. albicans for 2 h in BP; settings: 2 h incubation in BP; two fold dilution steps starting at 200 μg/ml
Description: as §1

E. coli = assay: Microbicidal activity, peptides incubated with E. coli for 2 h in BP; settings: 2 h incubation in BP; two fold dilution steps starting at 100 μg/ml
Description: as §1

Substance | MMC99% S. aureus (S. aureus) [µg/mL] | microbicidal activity compared with the corresponding peptide derived from the sequence of native hLF [1] | MMC99% C. albicans (C. albicans) [µg/mL] | MMC99% E. coli (E. coli) [µg/mL]
EATKCFQWKRNMRKVRGPPVSCIKR (EATKCFQWKRNMRKVRGPPVSCIKR; a fragment of human lactoferrin corresponding to aa 16-40 wherein one aa has been substituted) [HLBD1Q24K, synthetic peptide according to the present invention] | 25 | considerably higher | 50 | 12
EATKCFQWQRNMRKVRGPPVSCIKR (EATKCFQWQRNMRKVRGPPVSCIKR; a fragment of human lactoferrin corresponding to aa 16-40 wherein two aa has been substituted) [HLBD1, reference compound] | 50 | – | 200 | 50

From US20110053833A1, “SYNTHETIC PEPTIDES AND THEIR USE” (priority 2007, published 2011)
